From the supplement of paper PMC10307832

How the values were obtained:
Experiment in all cases: relative viability (nuclei count vs DMSO), 5 days (fraction); higher = more cells survive
VE-821 + Tozasertib = compound: CS(=O)(=O)c1ccc(-c2cnc(N)c(C(=O)Nc3ccccc3)n2)cc1 [VE-821] + Cc1cc(Nc2cc(N3CCN(C)CC3)nc(Sc3ccc(NC(=O)C4CC4)cc3)n2)n[nH]1 [Tozasertib] (partner 0.1 µM)
Procedure, shortened: (§1)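 Medians of duplicate plates are given as relative viability. That measure is the nuclei count in treated wells divided by the count in vehicle wells. Counts were taken on 4× images of lung cancer cell lines in 1536-well plates, 5 days after pin-tool dosing the day after seeding with one drug alone or a fixed anchor-drug dose plus five library-drug doses (not always all listed) in √10 steps.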

Vismodegib + Luminespib = compound: CS(=O)(=O)c1ccc(C(=O)Nc2ccc(Cl)c(-c3ccccn3)c2)c(Cl)c1 [Vismodegib] + CCNC(=O)c1noc(-c2cc(C(C)C)c(O)cc2O)c1-c1ccc(CN2CCOCC2)cc1 [Luminespib] (partner 0.01 µM)
Procedure, shortened: as §1

Vismodegib + Tozasertib = compound: CS(=O)(=O)c1ccc(C(=O)Nc2ccc(Cl)c(-c3ccccn3)c2)c(Cl)c1 [Vismodegib] + Cc1cc(Nc2cc(N3CCN(C)CC3)nc(Sc3ccc(NC(=O)C4CC4)cc3)n2)n[nH]1 [Tozasertib] (partner 0.1 µM)
Procedure, shortened: as §1

Ruxolitinib + AZD7762 = compound: N#CC[C@H](C1CCCC1)n1cc(-c2ncnc3[nH]ccc23)cn1 [Ruxolitinib] + NC(=O)Nc1cc(-c2cccc(F)c2)sc1C(=O)N[C@H]1CCCNC1 [AZD7762] (partner 0.2 µM)
Procedure, shortened: as §1

## LK-2
VE-821 + Tozasertib; first compound 0.08 µM
  relative viability: 0.172
VE-821 + Tozasertib; first compound 0.253 µM
  relative viability: 0.174
VE-821 + Tozasertib; first compound 0.8 µM
  relative viability: 0.161
VE-821 + Tozasertib; first compound 2.53 µM
  relative viability: 0.197
VE-821 + Tozasertib; first compound 8 µM
  relative viability: 0.202
Vismodegib + Luminespib; first compound 0.08 µM
  relative viability: 0.175
Vismodegib + Luminespib; first compound 0.253 µM
  relative viability: 0.185
Vismodegib + Luminespib; first compound 0.8 µM
  relative viability: 0.207
Vismodegib + Luminespib; first compound 2.53 µM
  relative viability: 0.151
Vismodegib + Luminespib; first compound 8 µM
  relative viability: 0.214
Vismodegib + Tozasertib; first compound 0.08 µM
  relative viability: 0.194
Vismodegib + Tozasertib; first compound 0.253 µM
  relative viability: 0.167
Vismodegib + Tozasertib; first compound 0.8 µM
  relative viability: 0.167
Vismodegib + Tozasertib; first compound 2.53 µM
  relative viability: 0.17
Vismodegib + Tozasertib; first compound 8 µM
  relative viability: 0.165
Ruxolitinib + AZD7762; first compound 0.08 µM
  relative viability: 0.4
Ruxolitinib + AZD7762; first compound 0.253 µM
  relative viability: 0.489
Ruxolitinib + AZD7762; first compound 0.8 µM
  relative viability: 0.815
Ruxolitinib + AZD7762; first compound 2.53 µM
  relative viability: 0.481
Ruxolitinib + AZD7762; first compound 8 µM
  relative viability: 0.648

## NCI-H1993
VE-821 + Tozasertib; first compound 0.08 µM
  relative viability: 0.685
VE-821 + Tozasertib; first compound 0.253 µM
  relative viability: 0.556
VE-821 + Tozasertib; first compound 0.8 µM
  relative viability: 0.567
VE-821 + Tozasertib; first compound 2.53 µM
  relative viability: 0.513
VE-821 + Tozasertib; first compound 8 µM
  relative viability: 0.549
Vismodegib + Luminespib; first compound 0.08 µM
  relative viability: 0.799
Vismodegib + Luminespib; first compound 0.253 µM
  relative viability: 0.865
Vismodegib + Luminespib; first compound 0.8 µM
  relative viability: 0.747
Vismodegib + Luminespib; first compound 2.53 µM
  relative viability: 0.814
Vismodegib + Luminespib; first compound 8 µM
  relative viability: 0.796
Vismodegib + Tozasertib; first compound 0.08 µM
  relative viability: 0.529
Vismodegib + Tozasertib; first compound 0.253 µM
  relative viability: 0.548
Vismodegib + Tozasertib; first compound 0.8 µM
  relative viability: 0.584
Vismodegib + Tozasertib; first compound 2.53 µM
  relative viability: 0.632
Vismodegib + Tozasertib; first compound 8 µM
  relative viability: 0.593
Ruxolitinib + AZD7762; first compound 0.08 µM
  relative viability: 0.828
Ruxolitinib + AZD7762; first compound 0.253 µM
  relative viability: 0.646
Ruxolitinib + AZD7762; first compound 0.8 µM
  relative viability: 1.05
Ruxolitinib + AZD7762; first compound 2.53 µM
  relative viability: 0.794
Ruxolitinib + AZD7762; first compound 8 µM
  relative viability: 0.985

## HCC-15
VE-821 + Tozasertib; first compound 0.08 µM
  relative viability: 0.451
VE-821 + Tozasertib; first compound 0.253 µM
  relative viability: 0.361
VE-821 + Tozasertib; first compound 0.8 µM
  relative viability: 0.322
VE-821 + Tozasertib; first compound 2.53 µM
  relative viability: 0.347
VE-821 + Tozasertib; first compound 8 µM
  relative viability: 0.309
Vismodegib + Luminespib; first compound 0.08 µM
  relative viability: 0.17
Vismodegib + Luminespib; first compound 0.253 µM
  relative viability: 0.267
Vismodegib + Luminespib; first compound 0.8 µM
  relative viability: 0.254
Vismodegib + Luminespib; first compound 2.53 µM
  relative viability: 0.508
Vismodegib + Luminespib; first compound 8 µM
  relative viability: 0.29
Vismodegib + Tozasertib; first compound 0.08 µM
  relative viability: 0.415
Vismodegib + Tozasertib; first compound 0.253 µM
  relative viability: 0.444
Vismodegib + Tozasertib; first compound 0.8 µM
  relative viability: 0.386
Vismodegib + Tozasertib; first compound 2.53 µM
  relative viability: 0.399
Vismodegib + Tozasertib; first compound 8 µM
  relative viability: 0.424
Ruxolitinib + AZD7762; first compound 0.08 µM
  relative viability: 1.09
Ruxolitinib + AZD7762; first compound 0.253 µM
  relative viability: 0.878
Ruxolitinib + AZD7762; first compound 0.8 µM
  relative viability: 1.23
Ruxolitinib + AZD7762; first compound 2.53 µM
  relative viability: 1.12
Ruxolitinib + AZD7762; first compound 8 µM
  relative viability: 1.17

## NCI-H322M
VE-821 + Tozasertib; first compound 0.08 µM
  relative viability: 0.542
VE-821 + Tozasertib; first compound 0.253 µM
  relative viability: 0.457
VE-821 + Tozasertib; first compound 0.8 µM
  relative viability: 0.451
VE-821 + Tozasertib; first compound 2.53 µM
  relative viability: 0.434
VE-821 + Tozasertib; first compound 8 µM
  relative viability: 0.297
Vismodegib + Luminespib; first compound 0.08 µM
  relative viability: 0.876
Vismodegib + Luminespib; first compound 0.253 µM
  relative viability: 0.797
Vismodegib + Luminespib; first compound 0.8 µM
  relative viability: 0.881
Vismodegib + Luminespib; first compound 2.53 µM
  relative viability: 0.812
Vismodegib + Luminespib; first compound 8 µM
  relative viability: 0.818
Vismodegib + Tozasertib; first compound 0.08 µM
  relative viability: 0.483
Vismodegib + Tozasertib; first compound 0.253 µM
  relative viability: 0.485
Vismodegib + Tozasertib; first compound 0.8 µM
  relative viability: 0.503
Vismodegib + Tozasertib; first compound 2.53 µM
  relative viability: 0.473
Vismodegib + Tozasertib; first compound 8 µM
  relative viability: 0.443
Ruxolitinib + AZD7762; first compound 0.08 µM
  relative viability: 0.524
Ruxolitinib + AZD7762; first compound 0.253 µM
  relative viability: 0.508
Ruxolitinib + AZD7762; first compound 0.8 µM
  relative viability: 0.517
Ruxolitinib + AZD7762; first compound 2.53 µM
  relative viability: 0.685
Ruxolitinib + AZD7762; first compound 8 µM
  relative viability: 0.776
